Results: patent US10869851B1, “Targeting NUR77 for mitigating perinatal neuroinflammation” (The United States Government as represented by the …, priority 2017, dated 2020)

Key:
Nur77 expression = experiment: Intrauterine LPS preterm labor/neuroinflammation model, Nur77 expression in fetal brain (microarray, qRT-PCR); design: species or system CD1 mice; conditions: mouse, in vivo
Protocol: (§1) Mice were randomly assigned to six groups: Group 1) 4 pups/PBS+normal saline (NS), Group 2) 4 pups/LPS+NS, Group 3) 4 pups/LPS+MgSO4, Group 4) 4 pups/LPS+BMZ, Group 5) 4 pups/LPS+MgSO4 and BMZ, and Group 6) 4 pups/LPS+TMPA. Except for the non-surgical control (Group 1), each group underwent intrauterine injection of either vehicle or LPS. Phosphate buffered saline (PBS) and normal saline (NS) were used for the control groups. […] Mice received 300 μl of normal saline prior to surgery as a precaution against dehydration. All surgical procedures were performed under anesthesia with isoflurane within a sterile environment using PPE and sterile surgical tools to prevent infection. E15.5 pup brains were compared 6 hours post LPS within the six treatment groups as described in Table 1:
Mice randomized to Groups 3-5 received a single subcutaneous (SQ) injection of 0.1 mg of MgSO4 and/or BMZ 30 minutes after intrauterine injection of LPS, per the Hallak protocol: 270 mg/kg SQ loading dose followed by 27 mg/kg SQ every 20 minutes for a four-hour duration. Mice randomized to Group 6 received a single dose of 50 mg/kg TMPA (approximately 2 mg of TMPA in 80 μl dimethyl sulfoxide (DMSO)) 30 minutes post-operative, as described by Zhan et al..

Ccr2 = experiment: Intrauterine LPS neuroinflammation model, fetal brain qRT-PCR of Ccr2; format: in vivo, CD1 mice
Protocol: as §1
(§2) Mice randomized to Groups 3-5 received a single subcutaneous (SQ) injection of 0.1 mg of MgSO4 and/or BMZ 30 minutes after intrauterine injection of LPS, per the Hallak protocol: 270 mg/kg SQ loading dose followed by 27 mg/kg SQ every 20 minutes for a four-hour duration. […]
(§3) A power analysis was conducted to determine the appropriate number of subjects. Using data, it was determined that a minimum number of pups per treatment group of […] was necessary to obtain statistical power at the 0.80 level.

Ikbkb = experiment: Intrauterine LPS neuroinflammation model, fetal brain qRT-PCR of Ikbkb; format: in vivo, CD1 mice
Protocol: as §1, §2, §3

Nos2 = experiment: Intrauterine LPS neuroinflammation model, fetal brain qRT-PCR of Nos2; format: in vivo, CD1 mice
Protocol: as §1, §2, §3

cerebral palsy = conditions: meta-analysis [9]; cited from earlier work
[1] = E15.5, 6 hours post LPS, LPS+treatment vs LPS

Compound | Nur77 expression (quantitative reverse-transcriptase PCR validation) (Nur77 expression) | Nur77 expression in fetal brain tissue (microarray) (Nur77 expression) | Ccr2 expression in embryonic brain (Ccr2; mouse, in vivo) | Ikbkb expression in embryonic brain (Ikbkb; mouse, in vivo) | Nos2 expression in embryonic brain (Nos2; mouse, in vivo) | women in preterm labor treated per single case of cerebral palsy prevented (cerebral palsy) | Ccr2 expression in embryonic brain (Ccr2; [1]) | Ikbkb expression in embryonic brain (Ikbkb; [1]) | Nos2 expression in embryonic brain (Nos2; [1])
O=S(=O)([O-])[O-].[Mg+2] [MgSO4, magnesium sulfate] | reduced | significantly reduced | only significantly lower for Ikbkb | significantly lower | only significantly lower for Ikbkb | 46 |  |  | 
CCCCCCCC(=O)c1cc(OC)c(OC)c(OC)c1CC(=O)OCC [TMPA, ethyl 2-(2,3,4-trimethoxy-6-octanoylphenyl)acetate] |  |  |  |  |  |  | significantly lower vs. LPS | significantly lower vs. LPS | significantly lower vs. LPS
